According to patent US20240285552A1 (priority 2020, published 2024):
pIC50: −log10 of the molar value. Where a name gives a salt, the structure may show the parent alone. Read-outs that look alike come from different tables or passages of the source.

Tests used:
[1] = system: A549 cells
[2] = system: SARS CoV-2 nanoluciferase reporter virus; assay: microbe, parasite or virus in culture; type: cell-based; details: for pIC50: read-out: IC50, viral replication, Nanoluciferase Reporter Virus Assay
[3] = target: T1, recombinant human ACE2 (rhACE2) (Homo sapiens, UniProt Q9BYF1); assay: ACE2 exopeptidase inhibitor screening assay (fluorogenic substrate), AMB and BHH; type: biochemical; details: for inhibition at 0.1 µM / inhibition at 1 µM / inhibition at 10 µM / inhibition at 50 µM / inhibition at 100 µM / inhibition at 250 µM / inhibition at 500 µM: read-out: ACE2 Exopeptidase Activity: Percent Inhibition; for effect on exopeptidase activity of rhACE2: tested 0.1 to 500 μM
T1 construct: purchased BPS Bioscience 79923
T1 sequence (Q9BYF1 18-805): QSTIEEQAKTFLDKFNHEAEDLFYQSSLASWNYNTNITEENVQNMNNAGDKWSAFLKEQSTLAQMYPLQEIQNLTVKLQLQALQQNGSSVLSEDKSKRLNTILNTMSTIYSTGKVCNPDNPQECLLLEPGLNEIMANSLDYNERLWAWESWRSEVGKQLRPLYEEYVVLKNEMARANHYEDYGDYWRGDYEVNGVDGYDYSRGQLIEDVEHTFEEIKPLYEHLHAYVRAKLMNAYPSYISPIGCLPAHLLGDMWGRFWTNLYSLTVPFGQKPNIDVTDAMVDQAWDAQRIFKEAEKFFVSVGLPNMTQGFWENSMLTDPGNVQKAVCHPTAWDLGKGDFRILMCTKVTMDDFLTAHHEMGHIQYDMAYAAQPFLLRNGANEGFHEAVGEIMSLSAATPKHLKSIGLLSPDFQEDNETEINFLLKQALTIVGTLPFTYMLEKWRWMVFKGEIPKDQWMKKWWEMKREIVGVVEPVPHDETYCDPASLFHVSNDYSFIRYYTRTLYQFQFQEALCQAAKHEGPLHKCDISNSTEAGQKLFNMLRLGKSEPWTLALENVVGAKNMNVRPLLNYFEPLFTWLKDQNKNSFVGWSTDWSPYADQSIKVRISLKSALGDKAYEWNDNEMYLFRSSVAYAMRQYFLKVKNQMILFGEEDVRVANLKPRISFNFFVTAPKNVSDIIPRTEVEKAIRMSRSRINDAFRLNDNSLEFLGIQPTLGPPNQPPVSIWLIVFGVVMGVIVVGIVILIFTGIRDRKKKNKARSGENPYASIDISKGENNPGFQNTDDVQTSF
Procedure: ACE2 Inhibitor Screening Assay. An ACE2 exopeptidase Inhibitor screening assay kit with the fluorogenic substrate (Catalogue #79923) was purchased from BPS Bioscience (San Diego, CA) and modified to measure the exopeptidase activity of ACE2 in the presence and absence of inhibitors (BPSBioscience, 2022). Following the manufacturer's directions, the fluorescence assay was carried out in a 96-well black flat-bottom plate with a final reaction volume of 50 μL. 50 mM stock solutions of BHH and AMB in 100% DMSO were prepared. Compounds were serially diluted in DMSO as follows: 500, 250, 100, 50, 10, 1, 0.1 μM. All experiments were done in triplicates and repeated twice. A positive control of enzyme treated with vehicle alone (2 percent DMSO) and a blank control with no enzyme were included on each plate.
Each reaction had 24 μL of purified recombinant human ACE2 protein (0.42 ng/L) in ACE2 buffer, 1 μL of the compound at different concentrations, and 25 μL ACE2 fluorogenic substrate. The final volume of the reaction was 50 μL. The reaction mixtures were incubated for 1 hr at room temperature (22° C.) and protected from light. After that, the fluorescence intensities (λExcitation=535 nm, λEmission=595 nm) were measured using a Spectramax iD3 multimode plate reader. The background hydrolysis was subtracted, and the data were fitted to a four-parameter logistic (variable slope) equation using GraphPad prism software 9.1.

[4] = in vitro; details: human, Cytotoxicity CC50, A549 cells, 72 hours

| Structure (SMILES) | ACE2 Exopeptidase Activity: Percent Activity ([3]; 0.1 uM) [%] | inhibition at 0.1 µM ([3]; 0.1 uM) [%] | ACE2 Exopeptidase Activity: Percent Activity ([3]; 1 uM) [%] | inhibition at 1 µM ([3]; 1 uM) [%] | ACE2 Exopeptidase Activity: Percent Activity ([3]; 10 uM) [%] | inhibition at 10 µM ([3]; 10 uM) [%] | ACE2 Exopeptidase Activity: Percent Activity ([3]; 50 uM) [%] | inhibition at 50 µM ([3]; 50 uM) [%] | ACE2 Exopeptidase Activity: Percent Activity ([3]; 100 uM) [%] | inhibition at 100 µM ([3]; 100 uM) [%] | ACE2 Exopeptidase Activity: Percent Activity ([3]; 250 uM) [%] | inhibition at 250 µM ([3]; 250 uM) [%] | ACE2 Exopeptidase Activity: Percent Activity ([3]; 500 uM) [%] | inhibition at 500 µM ([3]; 500 uM) [%] | other results |
| --- | --- | --- | --- | --- | --- | --- | --- | --- | --- | --- | --- | --- | --- | --- | --- |
| Nc1c(Br)cc(Br)cc1CN[C@H]1CC[C@H](O)CC1 [AMB, 4-[(2-amino-3,5-dibromophenyl)methylamino]cyclohexan-1-ol; hydrochloride] | 148.7 | -48.7 | 152.3 | -52.3 | 159.9 | -59.9 | 157.1 | -57.1 | 156.9 | -56.9 | 144.7 | -44.7 | 141.0 | -41 | Conc. at Max. % Viability [1]: 2.34 µM; Conc. at Min. % Viability [1]: 300 µM; Max. Viability [1]: 100%; Min. Viability [1]: 0.14%; CC50 ([1]; read-out: Cytotoxicity CC50, 72 hours, hydrochloride): 137 µM; Concentration at Maximum % Inhibition ([2]; A549-ACE2, NLRV): 300 µM; Maximum Inhibition ([2]; A549-ACE2, NLRV): 99.73%; pIC50 ([2]; Severe acute respiratory syndrome coronavirus 2, A549, 72 h): 4.33; pIC50 ([2]; hydrochloride): 4.32; effect on exopeptidase activity of rhACE2 [3]: did not inhibit; CC50 at 72 h [4]: 137 µM |
| CN(Cc1cc(Br)cc(Br)c1N)C1CCCCC1 [BHH, Bromhexine hydrochloride] | 111.3 | -11.3 | 114.7 | -14.7 | 104.6 | -4.6 | 2.7 | 97.3 | −6.2 | 106 | −6.7 | 107 | −6.6 | 107 | pIC50 ([3]; read-out: IC50, exopeptidase function of ACE2): 4.59; effect on exopeptidase activity of rhACE2 ([3]; hydrochloride): completely inhibited |
